Data published in PubChem BioAssay (NCI).
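48-hour exposure; five concentrations; linearly interpolated endpoints. GI50: concentration for 50% inhibition of growth. TGI: total growth inhibition.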

Experiments:
Experiment in all cases: NCI anticancer screen, dose series, 48 h; in the data active = GI50 below about 0.43 µM; inactive = the rest
[1] = system: 786-0 renal
[2] = system: A498 renal
[3] = system: A549 NSCLC
[4] = system: ACHN renal
[5] = system: BT-549 breast
[6] = system: CAKI-1 renal
[7] = system: CCRF-CEM leukemia
[8] = system: COLO 205 colon
[9] = system: DU-145 prostate
[10] = system: EKVX NSCLC
[11] = system: HCC-2998 colon
[12] = system: HCT-116 colon
[13] = system: HCT-15 colon
[14] = system: HL-60(TB) leukemia
[15] = system: HOP-62 NSCLC
[16] = system: HOP-92 NSCLC
[17] = system: HS 578T breast
[18] = system: HT29 colon
[19] = system: IGROV1 ovarian
[20] = system: K-562 leukemia
[21] = system: KM12 colon
[22] = system: LOX IMVI melanoma
[23] = system: M14 melanoma
[24] = system: MALME-3M melanoma
[25] = system: MCF7 breast
[26] = system: MDA-MB-231 breast
[27] = system: MDA-MB-435
[28] = system: MOLT-4 leukemia
[29] = system: NCI-H226 lung
[30] = system: NCI-H23 lung
[31] = system: NCI-H460 lung
[32] = system: NCI-H522 lung
[33] = system: NCI/ADR-RES ovarian
[34] = system: OVCAR-3 ovarian
[35] = system: OVCAR-4 ovarian
[36] = system: OVCAR-5 ovarian
[37] = system: OVCAR-8 ovarian
[38] = system: PC-3 prostate
[39] = system: RPMI-8226 leukemia
[40] = system: RXF 393 renal
[41] = system: SF-268 CNS
[42] = system: SF-295 CNS
[43] = system: SF-539 CNS
[44] = system: SK-MEL-2 melanoma
[45] = system: SK-MEL-28 melanoma
[46] = system: SK-MEL-5 melanoma
[47] = system: SK-OV-3 ovarian
[48] = system: SN12C renal
[49] = system: SNB-19 CNS
[50] = system: SNB-75 CNS
[51] = system: SR leukemia
[52] = system: SW-620 colon
[53] = system: T-47D breast
[54] = system: TK-10 renal
[55] = system: U251 CNS
[56] = system: UACC-257 melanoma
[57] = system: UACC-62 melanoma
[58] = system: UO-31 renal

Cc1cccc2c3c(sc12)C(c1ccc(Cl)cc1)C(C#N)=C(/N=C/c1ccc(Cl)cc1)O3 (stereo unspecified)
27.8 µM: TGI [1]
46.2 µM: TGI [41]
36.5 µM: TGI [15]
2370 nM: TGI [42]
24.3 µM: TGI [49]
11.2 µM: TGI [11]
> 46.5 µM: TGI [20]
953 nM: TGI [2]
20.6 µM: TGI [26]
20.7 µM: TGI [6]
748 nM: TGI [50]
2540 nM: TGI [14]
21.3 µM: TGI [55]
6.81 µM: TGI [34]
> 52 µM: TGI [18]
> 63.7 µM: TGI [7]
407 nM: TGI [27]
776 nM: TGI [40]
40 µM: TGI [47]
1260 nM: TGI [43]
51.3 µM: TGI [54]
> 19.7 µM: TGI [29]
14.2 µM: TGI [30]
2640 nM: TGI [17]
4.27 µM: TGI [33]
36.7 µM: TGI [16]
> 28.3 µM: TGI [39]
> 100 µM: TGI [3] | TGI [4] | TGI [9] | TGI [10] | TGI [12] | TGI [13] | TGI [19] | TGI [21] | TGI [22] | TGI [24] | TGI [25] | TGI [28] | TGI [31] | TGI [35] | TGI [36] | TGI [37] | TGI [38] | TGI [45] | TGI [46] | TGI [48] | TGI [52] | TGI [53] | TGI [56] | TGI [58]
> 34.9 µM: TGI [51]
29.9 µM: TGI [44]
12.7 µM: TGI [57]
active: GI50 [2] 0.0748 µM | GI50 [6] 0.265 µM | GI50 [7] 381 nM | GI50 [12] 0.402 µM | GI50 [13] 0.392 µM | GI50 [14] 0.325 µM | GI50 [17] 258 nM | GI50 [18] 0.388 µM | GI50 [19] 0.413 µM | GI50 [20] 0.281 µM | GI50 [23] 308 nM | GI50 [25] 0.301 µM | GI50 [27] 0.172 µM | GI50 [31] 0.425 µM | GI50 [32] 304 nM | GI50 [33] 307 nM | GI50 [34] 393 nM | GI50 [38] 392 nM | GI50 [39] 408 nM | GI50 [40] 240 nM | GI50 [42] 267 nM | GI50 [43] 298 nM | GI50 [50] 186 nM | GI50 [51] 0.36 µM | GI50 [57] 337 nM
3.12 µM: TGI [32]
> 52.6 µM: TGI [23]
> 57.9 µM: TGI [5]
inactive: GI50 [1] 653 nM | GI50 [3] 0.489 µM | GI50 [4] 0.858 µM | GI50 [5] 1380 nM | GI50 [8] 0.456 µM | GI50 [9] 0.485 µM | GI50 [10] 0.565 µM | GI50 [11] 1040 nM | GI50 [15] 0.573 µM | GI50 [16] 6.04 µM | GI50 [21] 448 nM | GI50 [22] 651 nM | GI50 [24] 595 nM | GI50 [26] 754 nM | GI50 [28] 517 nM | GI50 [29] 750 nM | GI50 [30] 446 nM | GI50 [35] 2170 nM | GI50 [36] 0.558 µM | GI50 [37] 0.46 µM | GI50 [41] 1930 nM | GI50 [44] 2860 nM | GI50 [45] 4.73 µM | GI50 [46] 0.47 µM | GI50 [47] 3.62 µM | GI50 [48] 0.623 µM | GI50 [49] 457 nM | GI50 [52] 434 nM | GI50 [53] 0.625 µM | GI50 [54] 12.2 µM | GI50 [55] 443 nM | GI50 [56] > 100 µM | GI50 [58] 0.653 µM

COc1nccc(-c2c(-c3ccc(F)cc3)ncn2C2CCC(O)CC2)n1 (stereo unspecified)
inactive: GI50 [1] > 100000 nM | GI50 [2] 21.5 µM | GI50 [3] 32.4 µM | GI50 [4] 14.8 µM | GI50 [5] > 100000 nM | GI50 [6] 25.2 µM | GI50 [7] > 84500 nM | GI50 [8] 99.6 µM | GI50 [9] 72.8 µM | GI50 [10] 78.2 µM | GI50 [11] > 100000 nM | GI50 [12] 79.3 µM | GI50 [13] 36.6 µM | GI50 [14] 56.7 µM | GI50 [15] 99 µM | GI50 [16] > 100 µM | GI50 [17] > 100000 nM | GI50 [18] 42.6 µM | GI50 [19] 22.2 µM | GI50 [20] 44.1 µM | GI50 [21] > 85600 nM | GI50 [22] > 92900 nM | GI50 [23] > 100000 nM | GI50 [24] > 100000 nM | GI50 [25] 24.9 µM | GI50 [26] > 100000 nM | GI50 [27] 54.3 µM | GI50 [28] > 95300 nM | GI50 [29] > 77800 nM | GI50 [30] > 100000 nM | GI50 [31] 29.9 µM | GI50 [32] > 60100 nM | GI50 [33] > 100000 nM | GI50 [34] > 82000 nM | GI50 [35] > 65300 nM | GI50 [36] 43.8 µM | GI50 [37] 89.1 µM | GI50 [38] > 100000 nM | GI50 [39] > 70300 nM | GI50 [40] > 79200 nM | GI50 [41] > 84600 nM | GI50 [42] > 100000 nM | GI50 [43] > 100000 nM | GI50 [44] > 100000 nM | GI50 [45] > 58.3 µM | GI50 [46] 43.1 µM | GI50 [47] 57.3 µM | GI50 [48] 61.8 µM | GI50 [49] > 100000 nM | GI50 [50] > 100000 nM | GI50 [51] 43 µM | GI50 [52] > 70800 nM | GI50 [53] 54.5 µM | GI50 [54] 39.4 µM | GI50 [55] > 86900 nM | GI50 [56] > 100 µM | GI50 [57] > 86900 nM | GI50 [58] 10.1 µM
> 100 µM: TGI [1] | TGI [3] | TGI [4] | TGI [5] | TGI [6] | TGI [7] | TGI [8] | TGI [9] | TGI [10] | TGI [11] | TGI [12] | TGI [13] | TGI [15] | TGI [16] | TGI [18] | TGI [19] | TGI [20] | TGI [21] | TGI [22] | TGI [23] | TGI [24] | TGI [25] | TGI [26] | TGI [28] | TGI [29] | TGI [30] | TGI [31] | TGI [32] | TGI [33] | TGI [34] | TGI [35] | TGI [36] | TGI [37] | TGI [38] | TGI [39] | TGI [41] | TGI [44] | TGI [45] | TGI [46] | TGI [47] | TGI [48] | TGI [49] | TGI [51] | TGI [52] | TGI [53] | TGI [54] | TGI [55] | TGI [56] | TGI [57] | TGI [58]
> 100000 nM: TGI [2] | TGI [14] | TGI [17] | TGI [27] | TGI [40] | TGI [42] | TGI [43] | TGI [50]
